The structures appear in SMILES notation. In brackets after ≈: the same amount, converted by molar mass. Bounds are passed on as bounds.

Series [1] deals with T1, Eukaryotic translation initiation factor 2-alpha kinase 3 (Homo sapiens, UniProt Q9NZJ5).
T1 sequence (Q9NZJ5 whole entry): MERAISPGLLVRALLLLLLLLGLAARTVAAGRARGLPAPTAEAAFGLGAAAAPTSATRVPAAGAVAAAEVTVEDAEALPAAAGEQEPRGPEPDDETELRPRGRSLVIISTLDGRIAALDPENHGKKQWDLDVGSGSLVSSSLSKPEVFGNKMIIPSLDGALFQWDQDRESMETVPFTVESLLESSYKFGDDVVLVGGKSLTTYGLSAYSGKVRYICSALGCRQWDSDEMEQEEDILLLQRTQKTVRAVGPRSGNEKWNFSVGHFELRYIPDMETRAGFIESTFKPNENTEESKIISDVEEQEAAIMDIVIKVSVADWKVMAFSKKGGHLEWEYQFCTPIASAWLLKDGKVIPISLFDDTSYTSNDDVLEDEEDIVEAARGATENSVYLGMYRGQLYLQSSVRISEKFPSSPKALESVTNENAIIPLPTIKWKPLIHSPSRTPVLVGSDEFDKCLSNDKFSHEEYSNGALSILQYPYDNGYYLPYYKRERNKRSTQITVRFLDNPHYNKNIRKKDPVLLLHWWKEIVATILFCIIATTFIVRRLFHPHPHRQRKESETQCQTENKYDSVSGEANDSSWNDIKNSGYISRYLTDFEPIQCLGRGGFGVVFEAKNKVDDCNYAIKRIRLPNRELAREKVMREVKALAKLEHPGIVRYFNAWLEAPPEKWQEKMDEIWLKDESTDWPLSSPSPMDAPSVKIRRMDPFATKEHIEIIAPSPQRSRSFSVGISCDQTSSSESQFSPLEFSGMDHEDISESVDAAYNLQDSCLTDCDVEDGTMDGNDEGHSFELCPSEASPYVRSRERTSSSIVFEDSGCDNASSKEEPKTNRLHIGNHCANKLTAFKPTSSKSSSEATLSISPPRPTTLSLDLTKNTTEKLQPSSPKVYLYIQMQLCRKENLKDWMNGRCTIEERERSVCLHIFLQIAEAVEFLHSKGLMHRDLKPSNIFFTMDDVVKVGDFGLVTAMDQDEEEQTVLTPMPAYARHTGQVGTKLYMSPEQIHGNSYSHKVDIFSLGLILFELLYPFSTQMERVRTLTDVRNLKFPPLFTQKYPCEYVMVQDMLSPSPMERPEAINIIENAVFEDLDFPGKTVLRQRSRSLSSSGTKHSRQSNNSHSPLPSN
The series is described as follows: Inhibition of human His-tagged PERK expressed in Escherichia coli assessed as eIF2alpha phosphorylation by TR-FRET assay.

Series [2] is described as follows: Aqueous solubility of the compound. To be noted: buffer. Type of series: physicochemical.
A short description of series [3]: Plasma protein binding in human. The class given is ADME, cell-free. The conditions noted are these: read-out: PPB (converted).
Series [4] is described as follows: Half life in human hepatocytes. The class given is ADME, cell-based, Hepatocyte.
Series [5] can be described thus: Plasma protein binding in dog. Type of series: ADME, cell-free, Canis lupus familiaris. To be noted: read-out: PPB (converted).
The nature of series [6]: Efflux ratio of apparent permeability in human Caco-2 cells. The class given is ADME, cell-based.
Series [7] is described as follows: Plasma protein binding in mouse. The class given is ADME, cell-free. To be noted: read-out: PPB (converted).
Series [8] can be described thus: Half life in mouse hepatocytes. The class given is ADME, cell-based, Hepatocyte.
Series [9] can be described thus: Plasma protein binding in rat. To be noted: read-out: PPB (converted). The class given is ADME, cell-free.
Series [10] is described as follows: Half life in dog hepatocytes. Type of series: ADME, cell-based, Canis lupus familiaris, Hepatocyte.
A short description of series [11]: Half life in rat hepatocytes. Type of series: ADME, cell-based, Hepatocyte.
A short description of series [12]: Apparent permeability of the compound across apical to basolateral side in human Caco-2 cells. The class given is ADME, cell-based. The conditions noted are these: read-out: permeability.

On to `CNC(=O)c1cc(-c2ccc(NC(=O)[C@H](O)c3cc(F)cc(F)c3)cc2C)cnc1N`, for which the concentration for half-maximal inhibition (IC50) in [1] was determined as 14 nM.
As to `Cc1cc(NC(=O)[C@H](O)c2cc(F)cc(F)c2)ccc1-c1cnc(N)c(C(=O)N(C)C)c1`, the IC50 in series [1] turned out to be 599 nM.
On to `COc1cc(NC(=O)[C@H](O)c2cc(F)cc(F)c2)ccc1-c1cnc(N)c(C(=O)NC(C)C)c1`, for which the IC50 in [1] was 85 nM.
On to `Cc1cc(NC(=O)[C@H](O)c2cc(F)cc(F)c2)ccc1-c1cnc(C)c(C(=O)NC(C)C)c1`, for which the IC50 in series [1] was 68 nM.
With `CCc1cccc([C@@H](O)C(=O)Nc2ccc(-c3cnc(N)c(C(=O)NC(C)C)c3)c(C)c2)c1`, the IC50 in series [1] turned out to be 6 nM.
In the case of `CO[C@@H](C(=O)Nc1ccc(-c2cnc(N)c(C(=O)NC(C)C)c2)c(C)c1)c1ccccc1`, the 50% inhibitory concentration (IC50) in series [1] is over 1000 nM.
As to `Cc1cc(NC(=O)C(O)c2cc(F)cc(F)c2)ccc1-c1cnc(N)c(C(=O)O)c1` (centres undefined), the 50% inhibitory concentration (IC50) in [1] was 241 nM.
Take `CC(C)NC(=O)c1cc(-c2ccc(NC(=O)[C@H](O)c3cc(F)cc(F)c3)cc2F)cnc1N`: the IC50 in series [1] was determined as 17 nM.
Take `Cc1cc(NC(=O)[C@H](O)c2cc(F)cc(F)c2)ccc1-c1cc(C(=O)NC(C)C)c(N)nn1`: in series [1], the half-maximal inhibitory concentration (IC50) is over 1000 nM.
With `Cc1cc(NC(=O)Cc2ccccc2)ccc1-c1cnc(N)c(C(=O)NC(C)C)c1`, in series [1], the 50% inhibitory concentration (IC50) stood at 73 nM.
Turning to `Cc1cc(NC(=O)[C@H](O)c2cc(F)cc(F)c2)ccc1-c1cncc(C(=O)NC(C)C)c1`, the concentration for half-maximal inhibition (IC50) in [1] came to 27 nM.
Consider `Cc1cc(NC(=O)[C@H](O)c2cc(F)cc(F)c2)ccc1-c1cnc(N)c(C(=O)NC(C)(C)C)c1`, for which, in series [1], the IC50 came to 33 nM.
For the molecule `Cc1cc(NC(=O)[C@@](C)(O)c2ccccc2)ccc1-c1cnc(N)c(C(=O)NC(C)C)c1`, the IC50 in series [1] worked out at 159 nM.
In the case of `Cc1cc(NC(=O)[C@H](O)c2cc(F)cc(F)c2)ccc1-c1cnc(N)c(C(=O)NC(C)C)n1`, in series [1], the half-maximal inhibitory concentration (IC50) is 5 nM.
`CC(C)NC(=O)c1cc(-c2ccc(NC(=O)[C@H](O)c3cc(F)cc(F)c3)cc2Cl)cnc1N` had a solubility in series [2] of 13 µM (≈ 6.17 µg/mL). Also, the fraction unbound in series [3] was 0.003; in series [5], 0.005; in [7] it was 0.005; in series [9], 0.007. For the same molecule, the half-life in series [4] was 9.48 h; in series [8] it was 0.4 h; in series [10] it was 7.18 h; in [11] it was 0.2 h. Also, in series [6], the efflux ratio was 2.5. In addition, in [1], the 50% inhibitory concentration (IC50) was determined as 9 nM. Also, the Papp A→B in series [12] is 24 ×10⁻⁶ cm/s.
As to `Cc1cc(NC(=O)[C@H](O)c2ccccc2)ccc1-c1cnc(N)c(C(=O)NC(C)C)c1`, in series [1], the concentration for half-maximal inhibition (IC50) came out at 9 nM.
Regarding `CNC(=O)c1nc(-c2ccc(NC(=O)[C@H](O)c3cc(F)cc(F)c3)cc2C)cnc1N`, the concentration for half-maximal inhibition (IC50) in [1] turned out to be 8 nM.
For the molecule `Cc1cc(NC(=O)[C@H](O)c2cccc(Cl)c2)ccc1-c1cnc(N)c(C(=O)NC(C)C)c1`, the solubility in series [2] worked out at 13 µM (≈ 5.89 µg/mL). For the same molecule, the fraction unbound is 0.004 in series [3], 0.006 in series [5], 0.006 in [7] and 0.013 in series [9]. In addition, the half-life turned out to be 4.32 h in series [4], 0.783 h in [8], 3.73 h in series [10] and 0.2 h in series [11]. The efflux ratio in series [6] was 2.8. For the same molecule, the IC50 in series [1] came out at 3 nM. In series [12], the Papp A→B was determined as 22 ×10⁻⁶ cm/s.
As for `Cc1cc(NC(=O)[C@@H](O)c2cc(F)cc(F)c2)ccc1-c1cnc(N)c(C(=O)NC(C)C)c1`, in [1], the IC50 is 26 nM.
Consider `Cc1cc(NC(=O)Nc2ccccc2)ccc1-c1cnc(N)c(C(=O)NC(C)C)c1`, for which the IC50 in series [1] is 1350 nM.
As to `Cc1cc(NC(=O)[C@H](O)c2cc(F)cc(F)c2)ccc1-c1cnc(N)c(C(=O)OC(C)C)c1`, in [1], the 50% inhibitory concentration (IC50) was 19 nM.
Regarding `Cc1cc(NC(=O)Oc2ccccc2)ccc1-c1cnc(N)c(C(=O)NC(C)C)c1`, in series [1], the IC50 is over 1000 nM.
`Cc1cc(NC(=O)[C@H](N)c2ccccc2)ccc1-c1cnc(N)c(C(=O)NC(C)C)c1`: the IC50 in series [1] stood at 1460 nM.
Molecule `Cc1cc(NC(=O)[C@H](O)c2cc(F)cc(F)c2)ccc1-c1cnc(N)c(C(=O)NC2CC2)c1` displayed a solubility in [2] of 37 µM (≈ 16.7 µg/mL). Moreover, the fraction unbound is 0.024 in [3], 0.029 in series [5], 0.028 in series [7] and 0.028 in [9]. Moreover, the half-life in series [4] is 7.92 h; in series [8], 0.8 h; in series [10] it was over 16.7 h; in series [11], 2.18 h. In addition, the efflux ratio in [6] is 4.6. Besides, the half-maximal inhibitory concentration (IC50) in series [1] was determined as 3 nM. The Papp A→B in [12] is 14 ×10⁻⁶ cm/s.
`Cc1cc(NC(=O)[C@](C)(O)c2ccccc2)ccc1-c1cnc(N)c(C(=O)NC(C)C)c1`: the half-inhibitory concentration (IC50) in series [1] was determined as 130 nM.
Consider `CNc1ncc(-c2ccc(NC(=O)[C@H](O)c3cc(F)cc(F)c3)cc2C)cc1C(=O)NC(C)C`, for which, in series [1], the 50% inhibitory concentration (IC50) is 129 nM.
As to `Cc1cc(NC(=O)[C@H](O)c2cc(F)cc(F)c2)ccc1-c1ccc(N)nc1`, the IC50 in series [1] turned out to be 75 nM.
`CC(C)NC(=O)c1cc(-c2ccc(NC(=O)[C@H](O)c3cc(F)cc(F)c3)cc2)cnc1N`: the IC50 in [1] turned out to be 23 nM.
For the molecule `Cc1cccc([C@@H](O)C(=O)Nc2ccc(-c3cnc(N)c(C(=O)NC(C)C)c3)c(C)c2)c1`, the IC50 in [1] came to 3 nM.
On to `CCNC(=O)c1cc(-c2ccc(NC(=O)[C@H](O)c3cc(F)cc(F)c3)cc2C)cnc1N`, for which the concentration in solution in [2] (solubility) came to 48 µM (≈ 21.1 µg/mL). The fraction unbound in series [3] is 0.019; in series [5] it was 0.029; in series [7] it was 0.028; in series [9] it was 0.033. Also, the half-life worked out at 1.97 h in series [4], 1.15 h in series [8], 14.6 h in [10] and 0.567 h in [11]. Further, in series [6], the efflux ratio amounted to 3.3. In addition, the IC50 in series [1] was determined as 4 nM. The Papp A→B in series [12] was 14 ×10⁻⁶ cm/s.

These data come from ChEMBL document CHEMBL4819104, “Discovery of 2-amino-3-amido-5-aryl-pyridines as highly potent, orally bioavailable, and efficacious PERK kinase inhibitors” (Bioorg Med Chem Lett, 2021).
